According to patent publication US8981111B2 (priority 2008, dated 2015):

Test: log P (HPLC/MS data of the preparation examples)
Conditions: HCOOH (formic acid)

| Compound | chromatographic logP |
| --- | --- |
| Cn1c(C(=NOCc2nccc(N(C(=O)C3CC3)C(=O)C3CC3)n2)c2ccccc2)cnc1C(=O)C1CC1 [Example 312, N-(cyclopropylcarbonyl)-N-(2-{[({[2-(cyclopropylcarbonyl)-1-methyl-1H-imidazol-5-yl](phenyl)methylene}amino)oxy]methyl}pyrimidin-4-yl)cyclopropanecarboxamide] | 3.73 |

Same assay, conditions: LC-MS, method [b]: pH 2.7 with 0.1% formic acid in water and acetonitrile, linear gradient 10% to 95% acetonitrile

| Compound | log p |
| --- | --- |
| Cn1ccnc1C(=NOCc1cccc(NC(=O)CCC2CCCC2)n1)c1cccc(F)c1 [Example 284] | 3.44^[b] |
| Cn1ccnc1C(=NOCc1cccc(NC(=O)CCC2CCCCC2)n1)c1cccc(F)c1 [Example 285] | 3.92^[b] |
| Cn1ccnc1C(=NOCc1cccc(NC(=O)CSc2ccccc2)n1)c1cccc(F)c1 [Example 286] | 2.82^[b] |
| CSCCC(=O)Nc1cccc(CON=C(c2cccc(F)c2)c2nccn2C)n1 [Example 287] | 2.07^[b] |
| CCC(C)CC(=O)Nc1cccc(CON=C(c2cccc(F)c2)c2nccn2C)n1 (stereo not drawn) [Example 288] | 2.77^[b] |
| CCCC(C)C(=O)Nc1cccc(CON=C(c2cccc(F)c2)c2nccn2C)n1 (stereo not drawn) [Example 289] | 2.77^[b] |
| Cn1ccnc1C(=NOCc1cccc(NC(=O)Cc2cccs2)n1)c1cccc(F)c1 [Example 290] | 2.44^[b] |
| Cn1ccnc1C(=NOCc1cccc(NC(=O)Cc2ccccc2Cl)n1)c1cccc(F)c1 [Example 291] | 2.8^[b] |
| Cc1cc(C(F)(F)F)nn1CC(=O)Nc1cccc(CON=C(c2cccc(F)c2)c2nccn2C)n1 [Example 292] | 2.8^[b] |
| Cn1ccnc1C(=NOCc1cccc(NC(=O)COc2ccccc2)n1)c1cccc(F)c1 [Example 293] | 2.63^[b] |
| Cn1ncnc1C(=NOCc1cccc(NC(=O)Cc2ccc(F)cc2)n1)c1ccccc1 [Example 294] | 3.15^[b] |
| Cn1ncnc1C(=NOCc1cccc(NC(=O)CCc2ccc(Cl)s2)n1)c1ccccc1 [Example 295] | 3.74^[b] |
| Cn1ncnc1C(=NOCc1cccc(NC(=O)CCc2cc(Cl)cc(Cl)c2)n1)c1ccccc1 [Example 296] | 4.29^[b] |
| COc1ccc(CCC(=O)Nc2cccc(CON=C(c3ccccc3)c3ncnn3C)n2)cc1 [Example 297] | 3.25^[b] |
| COc1cccc(CCC(=O)Nc2cccc(CON=C(c3ccccc3)c3ncnn3C)n2)c1 [Example 298] | 3.25^[b] |
| COc1ccccc1CCC(=O)Nc1cccc(CON=C(c2ccccc2)c2ncnn2C)n1 [Example 299] | 3.44^[b] |
| Cn1ncnc1C(=NOCc1cccc(NC(=O)CCc2ccc(Cl)cc2)n1)c1ccccc1 [Example 300] | 3.72^[b] |
| Cn1ncnc1C(=NOCc1cccc(NC(=O)CCc2ccccc2Cl)n1)c1ccccc1 [Example 301] | 3.72^[b] |
| Cn1ncnc1C(=NOCc1cccc(NC(=O)CCc2ccc(C(F)(F)F)cc2)n1)c1ccccc1 [Example 302] | 3.9^[b] |
| Cn1ncnc1C(=NOCc1cccc(NC(=O)CCc2ccccc2C(F)(F)F)n1)c1ccccc1 [Example 303] | 3.87^[b] |
| Cn1ncnc1C(=NOCc1cccc(NC(=O)C2CC2c2ccccc2)n1)c1ccccc1 (stereo not drawn) [Example 304] | 3.61^[b] |
| C=CCCOC(=O)Nc1cccc(CON=C(c2ccccc2)c2ncnn2C)n1 [Example 305] | 3.21^[b] |
| CC(C)CCC(=O)Nc1cccc(CON=C(c2ccccc2)c2ncnn2C)n1 [Example 306] | 3.37^[b] |
| CCC(C)CC(=O)Nc1cccc(CON=C(c2ccccc2)c2ncnn2C)n1 (stereo not drawn) [Example 307] | 3.31^[b] |
| Cn1ncnc1C(=NOCc1cccc(NC(=O)CCCCCl)n1)c1ccccc1 [Example 308] | 2.98^[b] |
| C#CCCCC(=O)Nc1cccc(CON=C(c2ccccc2)c2ncnn2C)n1 [Example 309] | 2.7^[b] |

| Compound | log p |
| --- | --- |
| C=CCCC(=O)Nc1cccc(CON=C(c2ccccc2)c2ncnn2C)n1 [Example 310] | 2.77^[b] |
| Cn1ncnc1C(=NOCc1cccc(NC(=O)Cc2cccs2)n1)c1ccccc1 [Example 311] | 2.98^[b] |
| Cn1ncnc1C(=NOCc1cccc(NC(=O)Cc2cccc(Cl)c2)n1)c1ccccc1 [Example 313] | 3.5^[b] |
| C=CCC(=O)Nc1cccc(CON=C(c2ccccc2)c2ncnn2C)n1 [Example 314] | 2.51^[b] |
| CC(C)COC(=O)Nc1cccc(CON=C(c2ccccc2)c2ncnn2C)n1 [Example 316] | 3.52^[b] |
| CC(C)CCOC(=O)Nc1cccc(CON=C(c2ccccc2)c2ncnn2C)n1 [Example 317] | 3.9^[b] |
| CCC(C)COC(=O)Nc1cccc(CON=C(c2ccccc2)c2nccn2C)n1 (stereo not drawn) [Example 324] | 2.52^[b] |
| CC(C)COC(=O)Nc1cccc(CON=C(c2ccccc2)c2nccn2C)n1 [Example 325] | 2.21^[b] |
| CC(C)CCOC(=O)Nc1cccc(CON=C(c2ccccc2)c2nccn2C)n1 [Example 326] | 2.51^[b] |
| Cn1ccnc1C(=NOCc1cccc(NC(=O)OCC(Cl)(Cl)Cl)n1)c1ccccc1 [Example 327] | 2.45^[b] |
| C=CCCOC(=O)Nc1cccc(CON=C(c2ccccc2)c2nccn2C)n1 [Example 328] | 2.02^[b] |
| CC(C)CCC(=O)Nc1cccc(CON=C(c2ccccc2)c2nccn2C)n1 [Example 329] | 2.15^[b] |
| C#CCOC(=O)Nc1cccc(CON=C(c2ccccc2)c2nccn2C)n1 [Example 330] | 1.66^[b] |
| Cn1ccnc1C(=NOCc1cccc(NC(=O)CCc2ccc(Cl)s2)n1)c1ccccc1 [Example 331] | 2.49^[b] |
| C#CCCOC(=O)Nc1cccc(CON=C(c2ccccc2)c2nccn2C)n1 [Example 332] | 1.78^[b] |
| CC(C(=O)Nc1cccc(CON=C(c2ccccc2)c2nccn2C)n1)c1ccccc1 (stereo not drawn) [Example 333] | 2.21^[b] |
| CCCCSC(=O)Nc1cccc(CON=C(c2ccccc2)c2nccn2C)n1 [Example 334] | 2.58^[b] |
| Cn1ccnc1C(=NOCc1cccc(NC(=O)CCc2ccc(Cl)s2)n1)c1cccc(F)c1 [Example 335] | 2.77^[b] |
| C#CCCOC(=O)Nc1cccc(CON=C(c2cccc(F)c2)c2nccn2C)n1 [Example 336] | 1.98^[b] |
| COC(C(=O)Nc1cccc(CON=C(c2ccccc2)c2nccn2C)n1)c1ccccc1 (stereo not drawn) [Example 337] | 2.15^[b] |
| Cn1ccnc1C(=NOCc1cccc(NC(=O)C2CCCCO2)n1)c1ccccc1 (stereo not drawn) [Example 338] | 1.93^[b] |
| COCCOC(=O)Nc1cccc(CON=C(c2ccccc2)c2nccn2C)n1 [Example 339] | 1.34^[b] |
| Cn1ccnc1C(=NOCc1cccc(NC(=O)C2CCCCO2)n1)c1cccc(F)c1 (stereo not drawn) [Example 340] | 2.17^[b] |
| COCCOC(=O)Nc1cccc(CON=C(c2cccc(F)c2)c2nccn2C)n1 [Example 341] | 1.66^[b] |
| CCCCSC(=O)Nc1cccc(CON=C(c2cccc(F)c2)c2nccn2C)n1 [Example 342] | 2.88^[b] |

Same assay, conditions: reversed phase HPLC column, pH 2.7

| Compound | chromatographic logP |
| --- | --- |
| CCCCCC(=O)Nc1cccc(CON=C(c2ccccc2)c2ocnc2C)n1 [Example 320, N-{6-[({[(4-methyl-1,3-oxazol-5-yl)(phenyl)methylene]amino}oxy)methyl]pyridin-2-yl}hexanamide] | 3.94 |
| CCCCCOC(=O)Nc1nc(CON=C(c2ccccc2)c2ocnc2C)cs1 [Example 321, pentyl{4-[({[(4-methyl-1,3-oxazol-5-yl)(phenyl)methylene]amino}oxy)methyl]-1,3-thiazol-2-yl}carbamate] | 4.09 |
